In patent US8378059B2, “Supramolecular handcuffs in polymeric architecture” (Cambridge Enterprise Ltd., priority 2007, dated 2013):

Columns and labels:
[1] = aqueous environment; cited from earlier work
[2] = solubility of hydrophobic guest in water, observed by 1H NMR; assay type: physicochemical
[3] = Hwang et al. J. Am. Chem. Soc. 2007; cited from earlier work

In the case of Cucurbit[8]uril, the “association constants (Ka), simultaneous binding of two organic guest molecules” value [1] is given as “≈ 10^11 M^−2”.
With CCCCCCCCCCCCCCCCCC[n+]1ccc(-c2cc[n+](C)cc2)cc1 [Viologen 3, Octadecyl methyl viologen] the “change in solubility in water” value ([2]; addition of CB[8] to a solution of Np-PEG5k and 3) was “increase in solubility” and the water solubility ([2]; guest alone) was “only sparingly water-soluble”.
For cucurbit[7]uril [CB[7]], the “Ka, 1:1 complex with ferrocene derivatives” value [3] is given as “≈ 10^12 M^−1”.
